Source: patent US20260060252A1, “HERBICIDAL COMBINATIONS” (UPL LTD, priority 2018, published 2026)

Tests used:
Type in all cases: in vivo
Conditions in all cases: clomazone 32, metribuzin 12, sulfentrazone 7.7 Fl oz/A, combination 32 + 7.7 + 12 Fl oz/A
Greenfox tail = test: % control of Greenfox tail in Soybean
Tall morning glory = test: % control of Tall morning glory in Soybean
Palmer amaranth = test: % control of Palmer amaranth in Soybean

| SMILES | % control of Greenfox tail in Soybean, Actual (Greenfox tail; 14 DAA) [%] | % control of Greenfox tail in Soybean, Actual (Greenfox tail; 28 DAA) [%] | % control of Greenfox tail in Soybean, Actual (Greenfox tail; 45 DAA) [%] | % control of Tall morning glory in Soybean, Actual (Tall morning glory; 14 DAA) [%] | % control of Tall morning glory in Soybean, Actual (Tall morning glory; 28 DAA) [%] | % control of Tall morning glory in Soybean, Actual (Tall morning glory; 45 DAA) [%] | % control of Palmer amaranth in Soybean, Actual (Palmer amaranth; 14 DAA) [%] | % control of Palmer amaranth in Soybean, Actual (Palmer amaranth; 28 DAA) [%] | % control of Palmer amaranth in Soybean, Actual (Palmer amaranth; 45 DAA) [%] |
| --- | --- | --- | --- | --- | --- | --- | --- | --- | --- |
| CC1(C)CON(Cc2ccccc2Cl)C1=O [Clomazone] | 85 | 56.7 | 32.9 | 53.3 | 30 | 13 | 60 | 43.3 | 16.4 |
| CSc1nnc(C(C)(C)C)c(=O)n1N [Metribuzin, 4-amino-6-(1,1-dimethylethyl)-3-(methylthio)-1,2,4-triazin-5 (4H)-one] | 63.4 | 39.9 | 22.7 | 53.3 | 39.6 | 16.4 | 65 | 50 | 36.1 |
| Cc1nn(-c2cc(NS(C)(=O)=O)c(Cl)cc2Cl)c(=O)n1C(F)F [Sulfentrazone, N-[2,4-dichloro-5-[4-(difluoromethyl)-4,5-dihydro-3-methyl-5-oxo-1H-1,2,4-triazol-1-yl]phenyl]-methane sulfonamide] | 68.5 | 46.6 | 29.7 | 66.7 | 42.8 | 22.5 | 80 | 62 | 39.4 |
